Measurements published in US12643882B2, “Inhibitors of human respiratory syncytial virus and metapneumovirus” (priority 2022, dated 2026).
Like-named read-outs stand apart in the source and are kept apart here.

Legend:
[1] = tested on: RSV-A2-GFP virus; experiment: microbe, parasite or virus in culture; format: cell-based, Human Respiratory Syncytial Virus
Experimental: To set up the assay, ARF vials were thawed in a 37° C. water bath and a control compound was resuspended in assay media DMEM (Dulbecco's Modified Eagle Medium) containing 2% FBS, 100 U/ml Penicillin-Streptomycin.
GFP sequence was derived from pJTI™ R4 Dest CMV N-EmGFP pA Vector (Invitrogen) and was cloned into the intergenic sequence between wild-type RSV-A2 P and M genes using standard recombineering techniques. Recombinant RSV-A2-GFP was propagated in Hep2 cells (human cells contain HeLa marker chromosomes and were derived via HeLa contamination, ATCC CCL-23) with a Multiplicity of Infection (MOI) of 0.1. Virus was harvested 3 days after infection by collecting all culture material and then freeze-thawing the mixture for 5 min. Working virus stocks were generated by thawing frozen viral cultures in 37° C. water bath, which were centrifuged at 218 g for 15 min at 4° C. 1/10 of 10×SPG (Biological Industries 06-3061-01-5A) were added and then mixed. The supernatant was aliquoted, frozen in liquid nitrogen, and then transferred to a −80° C. freezer for storage. Virus titer was determined by automated plaque assay in HEp-2 cells following methods described previously (Wen Z. et al.; 2019).
Calu-1 cells were purchased from ATCC (Cat #HTB-54) and were expanded in growth media (DMEM containing 10% FBS, 100 U/ml Penicillin-Streptomycin). To make ARF, cell culture media was removed and discarded and the cell layer was briefly rinsed with PBS to remove serum. 2.5 mL of TrypLE Express solution were added and cells incubated until dislodged, to which growth media was added and the cells were resuspended by gentle pipetting. Cells were counted for concentration and viability as determined by ViCell. Cells were centrifuged at RT, 300 g for 5 minutes to pellet cells. The supernatant was gently aspirated and the pellet was flicked to loosen cells. Cells were resuspended in an appropriate volume of freezing medium (DMEM containing 10% DMSO, 10% FBS, 100 U/ml Penicillin-Streptomycin) to achieve a concentration of 5×10^6 cells/mL. 1 mL aliquots of the cell suspension were transferred to freezing vials. The vials were put into an upright container in a −80° C. freezer overnight before transferring vials to liquid nitrogen for storage.
Assay ready freezedown (ARF, generation described separately) Calu-1 cells (ATCC HTB-54) were used. Compound plates were prepared by dispensing compounds dissolved in DMSO into the wells of a 384 well Corning® 3985 plate with an ECHO acoustic dispenser and compounds were tested in 10-point serial 3-fold dilution. […] To set up the assay, ARF vial(s) were thawed in a 37° C. water bath and were then resuspended into assay media (DMEM containing 2% FBS, 100 U/ml Penicillin-Streptomycin). Cells were counted using default parameters on ViCell and diluted to 20,000 cells/mL in assay media. RSV-A2-GFP virus was added to cells at 24,000 pfu/ml (MOI=1.2) and mixed by gentle inversion. 10 μL/well of 100% DMSO was dispensed as CellTiter-Glo (CTG) assay Max_E controls wells. The cells were dispensed at 50 μL/well using Bravo with 50 μL filtered tips into compound plates. Plates were covered with MicroClime lids, loaded with 7.5 mL of assay media to minimize evaporation, and were incubated at 37° C. and 5% CO2 for 96 hrs. Following incubation, distinct, GFP-expressing cells were counted using an Acumen imaging system with appropriate settings. A same-well CTG assay was performed by adding 10 μL/well reconstituted CellTiter-Glo reagent (Promega G7573) and plates were read on PerkinElmer Envision according to manufacturer's instructions. Raw data were loaded and analyzed in ActivityBase. Antiviral IC50 and cytotoxicity CC50 values were determined using a 4 parameter logistic fit based on the Levenberg-Marquardt algorithm. Model: 205-4 Parameter Logistic.

[2] = tested on: hMPV-GFP virus; experiment: microbe, parasite or virus in culture; format: cell-based, human metapneumovirus
Experimental: GFP expressing rgHMPV #3 p3 was generated in Dr. Buchholz's lab (Biacchesi S. et al., J Virol. 2007 June; 81(11): 6057-6067) and propagated in VERO cells (ATCC Cat #CCL-81) with a Multiplicity of Infection (MOI) of 0.1. Virus was harvested 4 days after infection by collecting cultured material and was freeze-thaw cycled in liquid nitrogen twice. Working virus stocks were generated from thawing frozen samples in 37° C. water bath, which were centrifuged at 218 g for 15 min at 4° C. 1/10 of 10×SPG (Biological Industries 06-3061-01-5A) were added and then mixed. The supernatant was aliquoted, frozen in liquid nitrogen, and then transferred to a −80° C. freezer for storage. Virus titer was determined by performing titration test in 96-well plates and calculate approximate virus titer using GFP event/well data.
Compound plates were prepared by dispensing compounds dissolved in DMSO into wells of a 384 well Corning 3985 polystyrene flat clear bottom optical imaging microplate (202.5 nL/well) using an ECHO acoustic dispenser. Each compound was tested in 10-point serial 3-fold dilution (typical final concentrations: 40,300 nM-2 nM). […] Continuous culture of VERO cells was maintained in complete culture media (OptiMEM supplemented with 2 mM GlutaMAX™ and 100 U/ml Penicillin-Streptomycin). To set up the assay, VERO cells were trypsinized with 0.25% Trypsin-EDTA until cells were dislodged, then cells were re-suspended with 1 mL FBS. Cells were spun down at 300 g for 5 minutes and cells were washed twice with culture media and counted using default parameters on ViCell. Cells were then diluted to 100,000 cells/mL (5,000 cells/50 μL) in complete culture media+TrypLE Select (80 μL/mL). hMPV-GFP virus was added to cells at 125,000 pfu/mL (MOI=1.25) and were mixed by gentle inversion. 10 μL/well of 100% DMSO was dispensed to CellTiter-Glo (CTG) assay Max_E controls wells. Cells were dispensed at 50 μL/well using Bravo and 50 μL filtered tips into compound plates. Plates were covered with MicroClime lids and loaded with 7.5 mL of assay media to minimize evaporation. Plates were lightly shaken for 10 minutes at room temperature and then incubated at 37° C. and 5% CO2 for 48 hrs. Following incubation, distinct GFP-expressing cells were counted using an Acumen imaging system with appropriate settings. A same-well CTG assay was performed by adding 10 μL/well reconstituted CellTiter-Glo reagent (Promega G7573) and plates were read on PerkinElmer Envision according to manufacturer's instructions. Raw data were loaded and analyzed in ActivityBase. Antiviral IC50 and cytotoxicity CC50 values were determined using a 4 parameter logistic fit based on the Levenberg-Marquardt algorithm. Model: 205-4 Parameter Logistic. • References: Wen Z, Citron M, Bett A J, Espeseth A S, Vora K A, Zhang L, DiStefano D J. Development and application of a higher throughput RSV plaque assay by immunofluorescent imaging. J Virol Methods. 2019 January; 263:88-95. doi: 10.1016/j.jviromet.2018.10.022. Epub 2018 Oct. 28. PMD: 30381239. • Biacchesi S, Murphy B R, Collins P L, Buchholz U J. Frequent frameshift and point mutations in the SH gene of human metapneumovirus passaged in vitro. J Virol. 2007 June; 81(11):6057-67. doi: 10.1128/JVL.00128-07. Epub 2007 Mar. 21. PMID: 17376897; PMCID: MC 1900297. Assay Data

[3] = Calu-1 cells infected with RSV-A2-GFP, 96 hrs, GFP-expressing cells counted, read-out: RSV EC50
[4] = VERO cells infected with hMPV-GFP, 48 hrs, GFP-expressing cells counted, read-out: hMPV EC50
[5] = read-out: RSV EC50, Calu-1 cells infected with RSV-A2-GFP, 96 hrs, GFP-expressing cells counted
[6] = human metapneumovirus, Vero, 48 h, read-out: hMPV EC50, VERO cells infected with hMPV-GFP, 48 hrs, GFP-expressing cells counted
[7] = read-out: hMPV EC50, VERO cells infected with hMPV-GFP, 48 hrs, GFP-expressing cells counted
[8] = human respiratory syncytial virus, Calu-1, 96 h, read-out: RSV EC50, Calu-1 cells infected with RSV-A2-GFP, 96 hrs, GFP-expressing cells counted

SMILES: Cc1nc(-c2ncccn2)sc1C(=O)N1C[C@@H]2C(Oc3cc(C(C)(C)N)cc(C4=CCC(C)CC4)n3)[C@@H]2C1 (mixture of isomers) [Example 46, rac-((1R,5S,6s)-6-((4-(2-aminopropan-2-yl)-6-(4-methylcyclohex-1-en-1-yl)pyridin-2-yl)oxy)-3-azabicyclo[3.1.0]hexan-3-yl)(4-methyl-2-(pyrimidin-2-yl)thiazol-5-yl)methanone]
- EC50 [1, 3]: < 10 nM
- EC50 [2, 4]: > 100 nM

SMILES: Cc1nc(-c2ncccn2)sc1C(=O)N1C[C@@H]2C(Oc3cc(C(C)(C)N)cc(C4=CCC(C(F)(F)F)CC4)n3)[C@@H]2C1 (mixture of isomers) [Example 47, rac-((1R,5S,6s)-6-((4-(2-aminopropan-2-yl)-6-(4-(trifluoromethyl)cyclohex-1-en-1-yl)pyridin-2-yl)oxy)-3-azabicyclo[3.1.0]hexan-3-yl)(4-methyl-2-(pyrimidin-2-yl)thiazol-5-yl)methanone]
- EC50 [1, 3]: < 10 nM
- EC50 [2, 4]: > 100 nM

SMILES: Cc1nc(-c2ncccn2)sc1C(=O)N1C[C@@H]2[C@H]1C[C@H]2Oc1cc(C(C)(C)N)cc(-c2ccc(F)cc2)n1 (single isomer, unassigned) [Example 1A]
- EC50 [1, 5]: > 100 nM
- EC50 [2, 6]: > 100 nM

SMILES: Cc1nc(-c2ncccn2)sc1C(=O)N1C[C@@H]2[C@H]1C[C@H]2Oc1cc(C(C)(C)N)cc(-c2ccc(F)cc2)n1 (single isomer, unassigned) [Example 1B]
- EC50 [1, 5]: < 10 nM
- EC50 [2, 7]: > 100 nM

SMILES: CC(C)(N)c1cc(O[C@@H]2C[C@@H]3[C@H]2CN3C(=O)c2cnc(-c3ncccn3)s2)nc(-c2ccc(F)cc2)c1 (single isomer, unassigned) [Example 2]
- EC50 [1, 8]: 10 to 100 nM
- EC50 [2, 6]: > 100 nM

SMILES: CC(O)c1nn(-c2ncccn2)cc1C(=O)N1C[C@@H]2C(Oc3cc(C(C)(C)N)cc(-c4ccc(F)c(F)c4)n3)[C@@H]2C1 (single isomer, unassigned; enantiomer 1) [Example 96A]
- EC50 [1, 3]: < 10 nM
- EC50 [2, 4]: > 100 nM

SMILES: Cc1nc(-c2ncccn2)sc1C(=O)N1C[C@H]2[C@H](Oc3cc(C(C)(C)N)cc(-c4ccc(F)cc4)n3)[C@@]2(C)C1 (single isomer, unassigned; enantiomer 1) [Example 103A]
- EC50 [1, 8]: < 10 nM
- EC50 [2, 6]: 10 to 100 nM

SMILES: Cn1nc(-c2ncccn2)cc1C(=O)N1C[C@H]2[C@H](Oc3cc(C(C)(C)N)cc(-c4ccc(F)cc4)n3)[C@@]2(C)C1 (single isomer, unassigned; enantiomer 1) [Example 104A]
- EC50 [1, 8]: < 10 nM
- EC50 [2, 6]: > 100 nM

SMILES: Cn1nc(-c2ncccn2)cc1C(=O)N1C[C@H]2[C@H](Oc3cc(C(C)(C)N)cc(-c4ccc(F)c(F)c4)n3)[C@@]2(C)C1 (single isomer, unassigned; enantiomer 1) [Example 105A]
- EC50 [1, 8]: < 10 nM
- EC50 [2, 7]: > 100 nM

SMILES: Cc1nn(-c2ncccn2)cc1C(=O)N1C[C@H]2[C@H](Oc3cc(C(C)(C)N)cc(-c4ccc(F)c(F)c4)n3)[C@@]2(C)C1 (single isomer, unassigned; enantiomer 1) [Example 106A]
- EC50 [1, 8]: < 10 nM
- EC50 [2, 7]: > 100 nM

SMILES: Cc1nn(-c2ncccn2)cc1C(=O)N1C[C@H]2[C@H](Oc3cc(C(C)(C)N)cc(-c4ccc(F)cc4)n3)[C@@]2(C)C1 (single isomer, unassigned; enantiomer 1) [Example 107A]
- EC50 [1, 8]: < 10 nM
- EC50 [2, 6]: > 100 nM

SMILES: Cn1nc(-c2ncccn2)cc1C(=O)N1C[C@H]2[C@H](Oc3cc(C(C)(C)N)cc(-c4ccc(F)cc4F)n3)[C@@]2(C)C1 (single isomer, unassigned; enantiomer 1) [Example 108A]
- EC50 [1, 8]: < 10 nM
- EC50 [2, 6]: > 100 nM

SMILES: Cc1nc(-c2ncccn2)sc1C(=O)N1C[C@@H]2[C@H](C1)[C@H]2Oc1cc(C(C)(C)N)cc(-c2ccc(F)c(F)c2)n1 [Example 15, ((1R,5S,6s)-6-((4-(2-aminopropan-2-yl)-6-(3,4-difluorophenyl)pyridin-2-yl)oxy)-3-azabicyclo[3.1.0]hexan-3-yl)(4-methyl-2-(pyrimidin-2-yl)thiazol-5-yl)methanone]
- EC50 [1, 3]: < 10 nM

SMILES: Cc1ccc(-c2cc(C(C)(C)N)cc(O[C@H]3[C@@H]4CN(C(=O)c5sc(-c6ncccn6)nc5C)C[C@@H]43)n2)cc1 [Example 21, ((1R,5S,6s)-6-((4-(2-aminopropan-2-yl)-6-(p-tolyl)pyridin-2-yl)oxy)-3-azabicyclo[3.1.0]hexan-3-yl)(4-methyl-2-(pyrimidin-2-yl)thiazol-5-yl)methanone]
- EC50 [1, 3]: < 10 nM

SMILES: Cc1nn(-c2ccccc2)cc1C(=O)N1C[C@@H]2[C@H](C1)[C@H]2Oc1cc(C(C)(C)N)cc(-c2ccc(F)cc2)n1 [Example 74, ((1R,5S,6s)-6-((4-(2-aminopropan-2-yl)-6-(4-fluorophenyl)pyridin-2-yl)oxy)-3-azabicyclo[3.1.0]hexan-3-yl)(3-methyl-1-phenyl-1H-pyrazol-4-yl)methanone]
- EC50 [1, 3]: < 10 nM
